Residues, ends and D or L forms follow the SMILES beside them. *: point of attachment. Cbz = O=C(OCc1ccccc1)*
tested on: SARS-CoV-2; set-up: species or system Chlorocebus sabaeus, Vero C1008; settings: assay_design cell number determination; assay_format cell based format; assay_stage confirmatory assay; assaysupport stable transfection; bao_tags Fluorescence imaging cell growth inhibition assay; bioassay Fluorescence imaging cell growth inhibition assay; bioassay_setting in vitro; bioassay_type functional; detectioninstrument ArrayScan XTI HCS Reader; detectionmethod fluorescence microscopy

Compared with `Nc1ncc(-c2ccnc(Nc3ccncc3)n2)c(CC2CC2)n1`, `CC(C)(O)CNc1ncc(-c2ccnc(Nc3ccnc(Cl)c3)n2)c(CC2CC2)n1` is 63-fold higher in IC50 relative: 12.577 µM for the first, 793.9225 µM for the second.

Going from `Nc1nc(N)c2nc(CNc3ccc(C(=O)N[C@@H](CCC(=O)O)C(=O)O)cc3)cnc2n1` [AMINOPTERIN] to `CN(Cc1cnc2nc(N)nc(N)c2n1)c1ccc(C(=O)N[C@@H](CCC(=O)O)C(=O)O)cc1` [METHOTREXATE], the IC50 relative falls from 0.3554 µM to 0.0551 µM (6.5-fold).

Going from `CC(C)(C)C(=O)/C(=C/c1cccc([N+](=O)[O-])c1)n1cncn1` to `C/C(=C\c1ccc(C(=O)O)cc1)c1ccc2c(c1)C(C)(C)CCC2(C)C`, the IC50 relative rises from 4.9629 µM to 54.1303 µM (11-fold).

Compared with `O=C(Nc1ccc(Cl)c(Cl)c1)Nc1ccc(Cl)c(Cl)c1`, `O=C(Nc1ccc(Cl)cc1)Nc1ccc(Cl)c(Cl)c1` [TRICLOCARBAN] is 1.6-fold higher in IC50 relative: 5.12 µM for the first, 8.2868 µM for the second.

Going from `O=C(O)c1ccc(N2C(=O)/C(=C\c3ccc(-c4ccc([N+](=O)[O-])cc4)o3)C=C2c2ccccc2)cc1` to `Cc1ccc(Oc2nc3cc(-c4ccc(-c5ccccc5)cc4)c(Cl)cc3[nH]2)cc1C(=O)O`, the IC50 relative falls from 651.6971 µM to 351.9839 µM (1.9-fold).

Going from `CC(=O)[C@]1(O)Cc2c(O)c3c(c(O)c2[C@@H](O[C@H]2C[C@H](N)[C@H](O)[C@H](C)O2)C1)C(=O)c1ccccc1C3=O.Cl` [IDARUBICIN HYDROCHLORIDE] to `CS(=O)(=O)O.Cc1c(O)cccc1C(=O)NC(CSc1ccccc1)C(O)CN1CC2CCCCC2CC1C(=O)NC(C)(C)C` (stereo not drawn), the IC50 relative falls from 28.5706 µM to 15.1399 µM (1.9-fold).

First: CC(C)C[C@@H](C=O)NC(=O)[C@H](CC(C)C)NC(=O)[C@H](CC(C)C)NC(=O)OCc1ccccc1 [MG-132] (Cbz-Leu-Leu-Leu-aldehyde)
Second: C#CCC(Cc1cnc2nc(N)nc(N)c2n1)c1ccc(C(=O)N[C@@H](CCC(=O)O)C(=O)O)cc1 (stereo partly drawn) [PRALATREXATE]
The IC50 relative of the first is 860-fold higher: 4.4656 µM for the first, 0.0052 µM for the second.

Going from `Nc1ncnc2c1ncn2[C@@H]1CC[C@@H](O)[C@H]1O` to `Nc1nc(S)c2ncn(C3OC(CO)C(O)C3O)c2n1` (stereo not drawn), the IC50 relative rises from 3.6981 µM to 16.2319 µM (4.4-fold).

Going from `CNCc1ccc(-c2cc(-c3nc(-c4ccc(S(=O)(=O)C(C)C)cc4)cnc3N)on2)cc1` [BERZOSERTIB] to `CCc1c(-c2ccc3[nH]ncc3c2)cnc(N)c1-c1ccc(O)cc1`, the IC50 relative rises from 33.669 µM to 51.0608 µM (1.5-fold).

Going from `COc1cc(/C=C2\SC(=O)NC2=O)ccc1Oc1ccc(C#N)cc1C(F)(F)F` to `CNC(=O)c1cc(Oc2ccc(NC(=O)Nc3ccc(Cl)c(C(F)(F)F)c3)c(F)c2)ccn1` [REGORAFENIB], the IC50 relative falls from 49.4361 µM to 16.4573 µM (3-fold).

Going from `C[C@@H]1COCCN1c1cc(=O)n2c(n1)N(Cc1cncc(Cl)c1)[C@H](C(F)(F)F)CC2` to `O=C(C1CC1)N1CC[C@@H](Cc2n[nH]c(=O)n2-c2ccc(-c3ccc4occc4c3)cc2)C1`, the IC50 relative rises from 19.8832 µM to 32.5565 µM (1.6-fold).

`CC(C)(C)c1ccccc1Oc1ncccc1NC(=O)Nc1ccc(OC(F)(F)F)cc1` and `Cn1c(Nc2ccc(C(F)(F)F)cc2)nc2cc(Oc3ccnc(-c4ncc(C(F)(F)F)[nH]4)c3)ccc21` [RAF-265] are within 1.5-fold of each other in IC50 relative: 9.5826 µM for the first, 10.7684 µM for the second.

First: CC(C)(C)c1cc(C=C(C#N)C#N)cc(C(C)(C)C)c1O [TYRPHOSTIN A9]
Second: CC(C)(C)c1cc(C=C(C#N)C#N)cc(Br)c1O
The IC50 relative of the first is 8.8-fold lower: 0.8215 µM for the first, 7.2055 µM for the second.

Compared with `Cc1cnc(Nc2ccc(F)cc2Cl)nc1-c1c[nH]c(C(=O)N[C@H](CO)c2cccc(Cl)c2)c1`, `CC1=NN(c2ccc(C)c(C)c2)C(=O)/C1=N\Nc1cccc(-c2cccc(C(=O)O)c2)c1O` [ELTROMBOPAG] is 6.3-fold higher in IC50 relative: 9.1133 µM for the first, 56.9757 µM for the second.

First: COc1cc2c(NC3CCN(C4CCCCC4)CC3)nc(N3CCCN(C(C)C)CC3)nc2cc1OCCCN1CCCCC1
Second: Cl.O=C(c1c2ccccc2cc2ccccc12)N1CCC(N2CCC[C@@H](C(=O)N3CCOCC3)C2)CC1
The IC50 relative of the first is 4.1-fold higher: 17.2224 µM for the first, 4.1627 µM for the second.

Going from `CS(=O)(=O)O.Cc1c(C(=O)c2cccc3ccccc23)c2cccc3c2n1[C@H](CN1CCOCC1)CO3` to `O=c1cc(N2CCOCC2)oc2c(-c3cccc4c3sc3ccccc34)cccc12`, the IC50 relative rises from 11.9328 µM to 145.964 µM (12-fold).

Going from `C[C@@H]1C[C@@H]([C@H](O)CC2CC(=O)NC(=O)C2)C(=O)[C@@H](C)C1` [CYCLOHEXIMIDE] to `COc1ccc2c(c1)[C@]1(C[C@H]1c1ccc3c(/C=C/c4ccc(CN5C[C@@H](C)O[C@@H](C)C5)cc4)n[nH]c3c1)C(=O)N2` [OCIFISERTIB], the IC50 relative rises from 2.4209 µM to 14.7188 µM (6.1-fold).

Compared with `COc1ccccc1[C@H](Cn1c(=O)n(C(C)(C)C(=O)O)c(=O)c2c(C)c(-c3ncco3)sc21)OC1CCOCC1` [FIRSOCOSTAT], `CN(C)c1cccc(-c2c3c(=O)n(-c4ccccc4Cl)[nH]c3cc(=O)n2C)c1` [SETANAXIB] is 600-fold higher in IC50 relative: 0.1223 µM for the first, 73.5962 µM for the second.

`Oc1c(Cl)cc(Cl)cc1Sc1cc(Cl)cc(Cl)c1O` [BITHIONOL] and `COc1cc2ncnc(Nc3cccc(Br)c3)c2cc1OC` are within 1.5-fold of each other in IC50 relative: 17.6664 µM for the first, 13.3328 µM for the second.

Compared with `CC[n+]1c(-c2ccccc2)c2cc(N)ccc2c2ccc(N)cc21.[Br-]` [HOMIDIUM BROMIDE], `N#Cc1cccc(C#N)c1-c1nc2c3ccc(Cl)cc3c3ccccc3c2[nH]1` is 6.2-fold lower in IC50 relative: 96.2744 µM for the first, 15.4145 µM for the second.

Compared with `CCCCn1c(NC(=O)c2cccs2)c(C#N)c2nc3ccccc3nc21`, `CCN(CC)c1ccc2cc(-c3nc4ccccc4[nH]3)c(=O)oc2c1` is 38-fold lower in IC50 relative: 13.3332 µM for the first, 0.3531 µM for the second.

Going from `CCCCOCCOc1ccc(-c2ccc3c(c2)/C=C(/C(=O)Nc2ccc([S@@+]([O-])Cc4cncn4CCC)cc2)CCCN3CC(C)C)cc1` [CENICRIVIROC] to `Cl.O=C(O)Cc1cccc(OCCCN(Cc2cccc(C(F)(F)F)c2Cl)CC(c2ccccc2)c2ccccc2)c1`, the IC50 relative falls from 52.7809 µM to 16.3401 µM (3.2-fold).

First: Nc1nc(O)c2[nH]nnc2n1 [8-AZAGUANINE]
Second: COc1cc(NCc2ccc3nc(N)nc(N)c3c2C)cc(OC)c1OC [TRIMETREXATE]
The IC50 relative of the first is 11-fold higher: 3.8962 µM for the first, 0.3486 µM for the second.

First: Cl.Cl.N[C@H]1CC[C@H](N[C@@H]2C[C@H]2c2ccccc2)CC1
Second: COc1ccc(-c2c[nH]c3nccc(-c4ccsc4)c23)c(OC)c1
The IC50 relative of the first is 2.3-fold higher: 65.2065 µM for the first, 28.2582 µM for the second.

Source: ChEMBL document CHEMBL5303708, “ECBD screening data for assay EOS300033” (2021)
